Results published in patent US20050197343A1, “Utilization of heteroarene carboxamide as dopamine-d3 ligands for the treatment of cns diseases” (priority 2002, published 2005).
Where two headings read alike, the source gives them in different places.

Experiments:
[1] = molecular target: α1 receptors; experiment: competitive experiment with the α1 selective radio ligand [3H]Prazosin; conditions: read-out: Ki values α1 (footnote d); pα1; competitive experiment with [3H]Prazosin
[2] = molecular target: D3 receptor (Homo sapiens, UniProt P35462); experiment: radio ligand binding assay, CHO cell membrane homogenates, [3H]Spiperon, D3; set-up: expressed in transfected cells; host or cells: CHO cells (membrane homogenates); conditions: for D3 selectivity D2long/D3 / D3 selectivity D2short/D3 / D3 selectivity D4.4/D3: ratio of Ki values
D3 receptor, sequence (P35462 whole entry): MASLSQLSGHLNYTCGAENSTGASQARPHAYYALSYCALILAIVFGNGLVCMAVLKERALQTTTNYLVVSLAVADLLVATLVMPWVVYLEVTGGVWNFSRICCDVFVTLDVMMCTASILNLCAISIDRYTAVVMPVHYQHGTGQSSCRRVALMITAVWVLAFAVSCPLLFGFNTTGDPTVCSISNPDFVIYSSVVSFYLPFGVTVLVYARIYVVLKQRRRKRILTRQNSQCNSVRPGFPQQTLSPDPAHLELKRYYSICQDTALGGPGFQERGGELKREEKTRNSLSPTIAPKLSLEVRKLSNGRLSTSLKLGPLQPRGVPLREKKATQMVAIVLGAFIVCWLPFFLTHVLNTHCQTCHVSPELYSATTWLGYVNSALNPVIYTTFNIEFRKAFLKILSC
Protocol: (§1) The biological activities of the compounds of the invention were determined in radio ligand binding assays.

[3] = molecular target: T1, serotonin receptor 5-HT2 (Sus scrofa, UniProt P50129); experiment: radio ligand binding, pig cortex membrane preparations, [3H]Ketanserin with 10 μM Prazosin; conditions: p5-HT2; simultaneous incubation with 10 μM of Prazosin
T1 construct: cortex membrane preparations of a pig; from tissue; host or cells: pig cortex
T1 sequence (P50129 whole entry): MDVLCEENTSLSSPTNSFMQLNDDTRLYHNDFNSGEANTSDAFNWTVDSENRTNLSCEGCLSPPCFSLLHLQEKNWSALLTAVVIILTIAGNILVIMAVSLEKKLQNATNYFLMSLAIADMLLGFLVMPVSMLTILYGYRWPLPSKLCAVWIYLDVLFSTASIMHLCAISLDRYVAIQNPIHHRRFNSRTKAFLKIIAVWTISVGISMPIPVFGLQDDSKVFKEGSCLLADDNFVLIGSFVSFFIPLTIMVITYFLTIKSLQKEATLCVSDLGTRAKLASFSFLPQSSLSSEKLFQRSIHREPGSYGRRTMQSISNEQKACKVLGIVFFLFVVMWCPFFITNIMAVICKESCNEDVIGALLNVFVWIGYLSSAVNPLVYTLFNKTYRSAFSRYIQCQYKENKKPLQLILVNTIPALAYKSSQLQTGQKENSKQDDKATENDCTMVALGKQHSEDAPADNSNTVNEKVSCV

[4] = molecular target: T2, serotonin receptor 5-HT1A (Sus scrofa, UniProt A0A4X1UTF5); experiment: radio ligand binding, pig cortex membrane preparations, [3H]8-OH-DPAT
T2 sequence (A0A4X1UTF5 1-422): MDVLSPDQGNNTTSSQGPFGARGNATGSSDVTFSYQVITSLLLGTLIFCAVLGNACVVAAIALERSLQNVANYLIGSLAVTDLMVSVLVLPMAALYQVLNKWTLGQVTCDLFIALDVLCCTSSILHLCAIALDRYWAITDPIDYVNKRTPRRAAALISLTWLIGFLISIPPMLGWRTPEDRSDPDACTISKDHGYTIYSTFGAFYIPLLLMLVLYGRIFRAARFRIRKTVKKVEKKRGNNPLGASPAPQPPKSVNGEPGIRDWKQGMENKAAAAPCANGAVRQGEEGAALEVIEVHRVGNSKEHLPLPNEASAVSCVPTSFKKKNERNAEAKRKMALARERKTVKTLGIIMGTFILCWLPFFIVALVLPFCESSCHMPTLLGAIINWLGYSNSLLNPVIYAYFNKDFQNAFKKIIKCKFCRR

[5] = molecular target: adrenergic receptor subtype α1; experiment: radio ligand binding, pig cortex membranes, highly affine binding site on labelling with [3H]Ketanserin; conditions: read-out: Ki values α1 (footnote c); pα1; derived from the highly affine binding site on labelling with [3H]Ketanserin
[6] = molecular target: T3, human D2short receptor (Homo sapiens, UniProt P14416); experiment: radio ligand binding assay, CHO cell membrane homogenates, [3H]Spiperon, D2short; conditions: hD2short; average of 2-9 experiments in triplicate
T3 construct: expressed in transfected cells; host or cells: CHO cells (membrane homogenates)
T3 sequence (P14416 1-414 isoform P14416-2): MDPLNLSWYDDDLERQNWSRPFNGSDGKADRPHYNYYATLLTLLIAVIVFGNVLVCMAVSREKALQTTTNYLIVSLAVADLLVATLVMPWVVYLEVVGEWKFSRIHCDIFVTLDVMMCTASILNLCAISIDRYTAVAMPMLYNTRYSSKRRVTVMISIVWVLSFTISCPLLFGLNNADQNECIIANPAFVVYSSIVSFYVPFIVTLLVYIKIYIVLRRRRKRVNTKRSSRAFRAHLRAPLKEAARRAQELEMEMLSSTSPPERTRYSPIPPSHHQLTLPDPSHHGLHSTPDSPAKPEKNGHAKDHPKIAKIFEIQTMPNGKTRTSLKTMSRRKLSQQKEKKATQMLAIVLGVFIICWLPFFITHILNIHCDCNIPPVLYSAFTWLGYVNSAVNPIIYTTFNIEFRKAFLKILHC
Protocol: as §1

[7] = molecular target: T4, human D4.4 receptor (Homo sapiens, UniProt P21917); experiment: radio ligand binding assay, CHO cell membrane homogenates, [3H]Spiperon, D4.4; conditions: for Ki: hD4.4, average of 2-9 experiments in triplicate
T4 construct: expressed in transfected cells; host or cells: CHO cells (membrane homogenates)
T4 sequence (P21917 1-419): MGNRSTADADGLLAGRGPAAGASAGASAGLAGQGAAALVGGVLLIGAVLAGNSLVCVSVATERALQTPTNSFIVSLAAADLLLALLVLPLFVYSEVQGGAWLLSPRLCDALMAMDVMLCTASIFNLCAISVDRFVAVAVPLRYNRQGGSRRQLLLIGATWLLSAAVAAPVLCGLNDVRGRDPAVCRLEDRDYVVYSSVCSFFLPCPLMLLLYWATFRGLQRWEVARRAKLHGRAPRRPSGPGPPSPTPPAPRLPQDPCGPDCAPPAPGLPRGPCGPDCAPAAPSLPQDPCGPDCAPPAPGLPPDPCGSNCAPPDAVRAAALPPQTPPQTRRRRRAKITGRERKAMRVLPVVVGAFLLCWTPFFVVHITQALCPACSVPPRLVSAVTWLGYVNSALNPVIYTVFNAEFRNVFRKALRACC
Protocol: as §1

[8] = molecular target: T5, D1 receptor (Sus scrofa, UniProt P50130); experiment: radio ligand binding assay, D1 receptor, pig striatum membrane homogenates, [3H]SCH 23390; conditions: pD1; average of 2-9 experiments in triplicate
T5 construct: native membrane homogenates obtained from the striatum of a pig; from tissue; host or cells: pig striatum
T5 sequence (P50130 whole entry): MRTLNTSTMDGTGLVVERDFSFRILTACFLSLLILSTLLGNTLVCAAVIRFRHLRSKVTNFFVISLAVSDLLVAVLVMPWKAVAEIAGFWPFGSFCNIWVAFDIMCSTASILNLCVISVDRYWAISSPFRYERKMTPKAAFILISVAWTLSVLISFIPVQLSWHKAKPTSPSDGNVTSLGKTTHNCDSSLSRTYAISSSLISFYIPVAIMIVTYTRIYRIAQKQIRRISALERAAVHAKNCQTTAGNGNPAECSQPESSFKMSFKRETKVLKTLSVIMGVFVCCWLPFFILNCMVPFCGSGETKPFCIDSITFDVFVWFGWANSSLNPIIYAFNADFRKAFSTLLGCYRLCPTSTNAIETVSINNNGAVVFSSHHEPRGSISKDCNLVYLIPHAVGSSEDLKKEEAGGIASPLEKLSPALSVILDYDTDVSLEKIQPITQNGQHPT
Protocol: as §1

[9] = molecular target: T6, human D2long receptor (Homo sapiens, UniProt P14416); experiment: radio ligand binding assay, CHO cell membrane homogenates, [3H]Spiperon, D2long; conditions: hD2long; average of 2-9 experiments in triplicate
T6 construct: expressed in transfected cells; host or cells: CHO cells (membrane homogenates)
T6 sequence (P14416 whole entry): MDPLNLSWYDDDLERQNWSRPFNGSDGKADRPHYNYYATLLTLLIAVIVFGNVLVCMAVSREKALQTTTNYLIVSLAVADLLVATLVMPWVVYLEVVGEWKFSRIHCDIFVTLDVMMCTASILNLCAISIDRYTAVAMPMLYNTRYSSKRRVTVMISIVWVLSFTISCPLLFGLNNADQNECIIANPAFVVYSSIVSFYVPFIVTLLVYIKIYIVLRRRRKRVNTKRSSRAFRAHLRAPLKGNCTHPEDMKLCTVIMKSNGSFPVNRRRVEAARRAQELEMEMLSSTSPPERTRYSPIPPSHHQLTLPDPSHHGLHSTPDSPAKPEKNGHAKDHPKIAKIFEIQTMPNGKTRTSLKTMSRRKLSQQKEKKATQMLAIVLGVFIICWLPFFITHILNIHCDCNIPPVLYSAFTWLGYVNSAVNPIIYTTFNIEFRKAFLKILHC
Protocol: as §1

[10] = hD3, average of 2-9 experiments in triplicate, read-out: Ki-values D3
[11] = read-out: Ki values 5-HT1A, p5-HT1A, [3H]8-OH-DPAT, average of 2 to 6 experiments

Row | Compound | Ki [1] [nM] | Ki [2, 10] [nM] | Ki [3] [nM] | Ki [4] [nM] | Ki [4, 11] [nM] | other results
1 | O=C(NCCCCN1CCN(c2cccc(Cl)c2Cl)CC1)c1cc2ccccc2s1 [Example 2, N-4-(4-(2,3-dichlorophenyl)piperazine-1-yl)butyl-2-benzo[b]thiophenylcarbamide] | 370 | – | – | – | – | –
2 | COc1ccccc1N1CCN(CCCCNC(=O)c2cc3cc(Br)ccc3[nH]2)CC1 [Example 12, N-4-(4-(2-methoxyphenyl)piperazine-1-yl)butyl-5-bromo-2-indolylcarbamide] | 6.4 | 0.23 to 0.57 | 280 | 440 | – | –
3 | COc1ccccc1N1CCN(CCCCNC(=O)c2cc3ccccc3[nH]2)CC1 [Example 24, N-4-(4-(2-methoxyphenyl)piperazine-1-yl)butyl-2-indolylcarbamide] | 7.3 | – | 420 | 32 | – | Ki [5]: 11 nM
4 | COc1ccccc1N1CCN(CCCCNC(=O)c2cc3cc(Br)ccc3o2)CC1 [Example 5, N-4-(4-(2-methoxyphenyl)piperazine-1-yl)butyl-5-brom-2-benzo[b]furanylcarbamide] | 5.3 | 0.69 | 140 | – | 68 | Ki [6]: 61 nM; Ki [7]: 17 nM; Ki [8]: 590 nM; D3 selectivity D2long/D3 [2]: 140; D3 selectivity D2short/D3 [2]: 88; D3 selectivity D4.4/D3 [2]: 25; Ki [9]: 96 nM
5 | COc1ccccc1N1CCN(CCCCNC(=O)c2cc3ccc(C#N)cc3[nH]2)CC1 [Example 13, N-4-(4-(2-methoxyphenyl)piperazine-1-yl)butyl-6-cyan-2-indolylcarbamide] | 4.3 | 0.23 to 0.57 | 220 | 47 | – | –
6 | N-4-(4-(2, 3-dichlorophenyl)piperazine-1 -yl)butyl-2-ferrocenylcarbamide [Example 17] | 73 | 0.47 | 250 | – | 27 | D4 affinity (in words) [7]: high D4 affinity; Ki [7]: 0.63 nM
7 | COc1ccccc1N1CCN(CCCCNC(=O)c2cc3cc(C#N)ccc3s2)CC1 [Example 18, N-4-(4-(2-methoxyphenyl)piperazine-1-yl)butyl-5-cyano-2-benzo[b]thiophenylcarbamide] | 2.9 | – | 580 | 54 | – | –
8 | N-4-(4-(2-methoxyphenyl)piperazine-1 -yl)butyl-2-ferrocenylcarbamide [Example 16] | 30 | – | 500 | – | 0.6 | D4 affinity (in words) [7]: high D4 affinity
9 | O=C(NCCCCN1CCN(c2cccc(Cl)c2Cl)CC1)c1cc2ccccc2o1 [Example 4, N-4-(4-(2,3-dichlorophenyl)piperazine-1-yl)butyl-2-benzo[b]furanylcarbamide] | 160 | 1.2 | – | – | – | –
10 | O=C(NCCCCN1CCN(c2cccc(Cl)c2Cl)CC1)c1cc2cc(Br)ccc2s1 [Example 23, N-4-(4-(2,3-dichlorophenyl)piperazine-1-yl)butyl-5-brom-2-benzo[b]thiophenylcarbamide] | 320 | – | 14000 | – | 430 | –
11 | COc1ccccc1N1CCN(CCCCNC(=O)c2cc3ccccc3o2)CC1 [Example 3, N-4-(4-(2-methoxyphenyl)piperazine-1-yl)butyl-2-benzo[b]furanylcarbarnide] | 3.3 | – | – | – | – | Ki [7]: 30 nM; Ki [5]: 14 nM
12 | O=C(NCCCCN1CCN(c2cccc(Cl)c2Cl)CC1)c1cc2ccccc2[nH]1 [Example 10, N-4-(4-(2,3-dichlorophenyl)piperazine-1-yl)butyl-2-indolylcarbamide] | 220 | 0.23 to 0.57 | – | 610 | – | D3 affinity (in words) [2]: subnanomolar affinity
13 | COc1ccccc1N1CCN(CCCCNC(=O)c2cc3ccc(C#N)cc3s2)CC1 [Example 20, N-4-(4-(2-methoxyphenyl)piperazine-1-yl)butyl-6-cyano-2-benzo[b]thiophenylcarbamide] | 8.3 | 0.23 to 0.57 | 660 | 71 | – | –
14 | O=C(NCCCCN1CCN(c2cccc(Cl)c2Cl)CC1)c1cc2cc(Br)ccc2o1 [Example 6, N-4-(4-(2,3-dichlorophenyl)piperazine-1-yl)butyl-5-bromo-2-benzo[b]furanylcarbarnide] | 1300 | 3.4 | 540 | – | 2500 | Ki [6]: 4800 nM; Ki [7]: 3100 nM; Ki [8]: 2100 nM; D3 affinity (in words) [2]: subnanomolar affinity; D3 selectivity D2long/D3 [2]: 2900; D3 selectivity D2short/D3 [2]: 1400; D3 selectivity D4.4/D3 [2]: 910; Ki [9]: 10000 nM
15 | N#Cc1ccc2[nH]c(C(=O)NCCCCN3CCN(c4cccc(Cl)c4Cl)CC3)cc2c1 [Example 25, N-4-(4-(2,3-dichlorophenyl)piperazine-1-yl)butyl-5-cyano-2-indolylcarbamide] | 220 | – | 220 | – | 190 | –
16 | N#Cc1ccc2sc(C(=O)NCCCCN3CCN(c4cccc(Cl)c4Cl)CC3)cc2c1 [Example 19, N-4-(4-(2,3-dichlorophenyl)piperazine-1-yl)butyl-5-cyan-2-benzo[b]thiophenylcarbamide] | 230 | – | 280 | – | 190 | –
17 | COc1ccccc1N1CCN(CCCCNC(=O)c2cc3cc(C#N)ccc3o2)CC1 [Example 7, N-4-(4-(2-methoxyphenyl)piperazine-1-yl)butyl-5-cyano-2-benzo[b]furanylcarbamide] | 11 | 4.2 | 390 | 37 | – | Ki [6]: 89 nM; Ki [7]: 57 nM; Ki [5]: 8.2 nM; Ki [9]: 130 nM
18 | COc1ccccc1N1CCN(CCCCNC(=O)c2cc3ccccc3[te]2)CC1 [Example 8, N-4-(4-(2-methoxyphenyl)piperazine-1-yl)butyl-2-benzo[b]tellurophenylcarbamide] | 3.5 | – | 420 | 69 | – | Ki [2]: 0.72 nM
19 | N#Cc1ccc2cc(C(=O)NCCCCN3CCN(c4cccc(Cl)c4Cl)CC3)[nH]c2c1 [Example 15, N-4-(4-(2,3-dichlorophenyl)piperazine-1-yl)butyl-6-cyano-2-indolylcarbamide] | 2000 | – | 320 | – | 390 | –
20 | O=C(NCCCCN1CCN(c2cccc(Cl)c2Cl)CC1)c1cc2cc(Br)ccc2[nH]1 [Example 14, N-4-(4-(2,3-dichlorophenyl)piperazine-1-yl)butyl-5-brom-2-indolylcarbamide] | 500 | – | 690 | – | 1600 | –
21 | COc1ccccc1N1CCN(CCCCNC(=O)c2cc3cc(Br)ccc3s2)CC1 [Example 22, N-4-(4-(2-methoxyphenyl)piperazine-1-yl)butyl-5-brom-2-benzo[b]thiophenylcarbamide] | 2.5 | – | 760 | – | 180 | –
22 | COc1ccccc1N1CCN(CCCCNC(=O)c2cc3cc(C#N)ccc3[nH]2)CC1 [Example 11, N-4-(4-(2-methoxyphenyl)piperazine-1-yl)butyl-5-cyan-2-indolylcarbamide] | 5.9 | 0.23 to 0.57 | 440 | 83 | – | Ki [5]: 24 nM
23 | N#Cc1ccc2cc(C(=O)NCCCCN3CCN(c4cccc(Cl)c4Cl)CC3)sc2c1 [Example 21, N-4-(4-(2,3-dichlorophenyl)piperazine-1-yl)butyl-6-cyano-2-benzo[b]thiophenylcarbamide] | 45 | 0.23 to 0.57 | 290 | 110 | – | –
